Source: patent US6521814B1, “Use of ligands for treatment of diseases responsive to retinoids” (Institut National de la Santa et de la Recherche Medicale, priority 1997, dated 2003)

Columns and labels:
[1] = tested on: D2R promoter; test: D2R promoter CAT reporter assay in transfected COS-1 cells, reporter alone; type: cell-based, rat; conditions: C1 reporter-transfected COS-1 cells, no receptor vector; 10^−7 M
Excerpt: Expression Vectors. The C1 reporter construct was obtained by subcloning the HindIII fragment spanning the 5 ′ promoter region of the D2R gene (positions −495 to +273), in the reporter plasmid pBLCAT3 (Luckow, B. & Schütz, G., Nucleic Acids Res. 15:5490 (1987)). The C2 reporter plasmid was constructed by subcloning the SmaI-XhoI fragment (positions −76 to +273) in the same position. The C3 and C4 reporters were generated by cloning a 29 bp synthetic oligonucleotide corresponding, respectively, to the natural rat D2R RARE sequence and the mutated one into pBLCAT2 (Luckow, B. & Schütz, G., Nucleic Acids Res. 15:5490 (1987)). The polylinker in pBLCAT2 is located upstream of the herpes simplex virus 1 (HSV1) thymidine kinase (TK) promoter, from position −105 to +51. To measure transfection efficiency the plasmid pCH110 carrying the β-galactosidase gene (Pharmacia) was used. Mouse […], as well as mouse RXRα, β and γ expression vectors were derived from the parental pSG5 vector (Green, S., et al., Nucleic Acids Res. 16:369 (1988)).
COS-1 cells were used for transient transfection assays. Cells were grown in Dulbecco's modified Eagle's medium supplemented with 5% fetal calf serum.
Several hours before transfection, the medium was replaced with fresh medium containing 5% charcoal-treated FCS. […]

[2] = tested on: RARγ−/− F9 cells; test: Proliferation of F9 cells in monolayer culture (cell counting, [3H]thymidine incorporation, cell cycle FACS); type: cell-based, murine; conditions: 6 d
Method: (§1) Cells were plated in triplicate 3-cm culture wells (5×10^2 cells per well), and cell counting experiments were performed as previously described (Clifford, J., et al., EMBO J. 15:4142-4155 (1996)). [^3H]Thymidine incorporation assays were performed essentially as described (Clifford, J., et al., EMBO J. 15:4142-4155 (1996)), with the following modifications. […] The cell cycle profile of WT and mutant cells was determined as previously described (Clifford, J., et al. EMBO J. 15:4142-4155 (1996)).

[3] = tested on: RARα−/− F9 cells; test: as above; type: cell-based, murine; conditions: 6 d
Method: as §1

[4] = tested on: WT F9 cells; test: as above; type: cell-based, murine; conditions: 6 d
Method: as §1

[5] = tested on: RXRα−/−/RARα−/− F9 cells; test: Apoptosis of F9 cells (Hoechst 33258 staining, FACS); type: cell-based, murine; conditions: 100 nM, 6 d
[6] = tested on: RXRα−/− F9 cells; test: as above; type: cell-based, murine; conditions: 100 nM, 6 d
[7] = tested on: RARα−/− F9 cells; test: Morphological differentiation of F9 cell aggregates into visceral endoderm (VE)-like cells (morphology, RT-PCR of markers); type: cell-based, murine; parameters: key to proportion of outer layer of cells displaying VE morphology: +++: more than 80%; ++: 50-80%; +: 10-50%; ±: not more than 10%; (−): no visible effect; conditions: 10 d
Excerpt: (§2) Similarly, after 10 d of treatment, >80% of the outer layer of RARα^−/− and RXRα^−/−/RARα^−/− cell aggregates differentiated into VE-like cells, which were indistinguishable from those of WT and RXRα^−/− cells (FIG. 23A, compare f with panels b and d; and Table 9). […] To exclude the possibility that this very poor differentiation of the RXRα^−/−/RARγ^−/− cells could be due to some clonal variation, rather than the presence of the RXRα-null mutation in the RARγ-null background, we expressed the RXRα cDNA in RXRα^−/−/RARγ^−/− cells.
(§3) F9 cells were cultured and induced to differentiate into primitive, parietal and visceral endoderm-like cells as previously described (Boylan, J., et al., Proc. Natl. Acad. Sci. USA 90:9601-9605 (1993); Clifford, J., et al., EMBO J. 15:4142-4155 (1996)).
(§4) RNA preparation, RT-PCR, and Southern blotting were performed as previously described (Bouillet, P., et al., Dev. Biol. 170:420-433 (1995); Roy, B., et al., Mol. Cell. Biol. 15:6481-6487 (1995)). The PCR primers and end-labeled oligonucleotide probes for collagen IVα1, laminin B1, α-fetoprotein (AFP), and 36B4, were described previously (Clifford, J., et al ., EMBO J. 15:4142-4155 (1996)). Transcript levels were quantified using a BAS 2000 bioimaging analyzer (Fuji Ltd., Tokyo, Japan), and were normalized to the corresponding 36B4 signals.

[8] = tested on: WT F9 cells; test: as above; type: cell-based, murine; parameters: key to proportion of outer layer of cells displaying VE morphology: +++: more than 80%; ++: 50-80%; +: 10-50%; ±: not more than 10%; (−): no visible effect; conditions: WT, 10 d
Excerpt: as §2, §3, §4

[9] = tested on: RXRα−/−/RARγ−/− F9 cells; test: Proliferation of F9 cells in monolayer culture (cell counting, [3H]thymidine incorporation, cell cycle FACS); type: cell-based, murine; conditions: 6 d
[10] = tested on: RARγ−/− F9 cells; test: Apoptosis of F9 cells (Hoechst 33258 staining, FACS); type: cell-based, murine; conditions: 100 nM, 6 d
Method: (§5) Apoptosis was analyzed by both Hoechst staining of nuclei and FACS® analysis, as previously described (Clifford, J., et al., EMBO J. 15:4142-4155 (1996)).

[11] = tested on: WT F9 cells; test: as above; type: cell-based, murine; conditions: 6 d
Method: as §5

[12] = tested on: RXRα−/−/RARα−/− F9 cells; test: Proliferation of F9 cells in monolayer culture (cell counting, [3H]thymidine incorporation, cell cycle FACS); type: cell-based, murine; conditions: 6 d
[13] = tested on: RARγ−/− F9 cells; test: Morphological differentiation of F9 cell aggregates into visceral endoderm (VE)-like cells (morphology, RT-PCR of markers); type: cell-based, murine; parameters: key to proportion of outer layer of cells displaying VE morphology: +++: more than 80%; ++: 50-80%; +: 10-50%; ±: not more than 10%; (−): no visible effect; conditions: RARγ−/−, 10 d
Method: as §3, §4

[14] = tested on: RXRα−/− F9 cells; test: Proliferation of F9 cells in monolayer culture (cell counting, [3H]thymidine incorporation, cell cycle FACS); type: cell-based, murine; conditions: 6 d
[15] = tested on: RARα−/− F9 cells; test: Apoptosis of F9 cells (Hoechst 33258 staining, FACS); type: cell-based, murine; parameters: key: (−): no visible effect; conditions: 6 d
Method: as §5

[16] = tested on: RXRα−/− F9 cells; test: Morphological differentiation of F9 cell aggregates into visceral endoderm (VE)-like cells (morphology, RT-PCR of markers); type: cell-based, murine; conditions: 10 d
Excerpt: (§6) Transcript levels were quantified using a BAS 2000 bioimaging analyzer (Fuji Ltd., Tokyo, Japan), and were normalized to the corresponding 36B4 signals.

[17] = tested on: RXRα−/−/RARα−/− F9 cells; test: as above; type: cell-based, murine; conditions: RXRα−/−/RARα−/−, 10 d
Excerpt: as §6

[18] = target: T1, RARα/RXRγ (Mus musculus, UniProt P11416;P28705 P11416:1-462,P28705:1-463); test: cell_activity; C3 TK-CAT reporter with one RARE D2 copy, t-RA and 9-cis-RA; conditions: tags: pSG5 expression vectors, COS-1 cells; label: 32P
T1 sequence 1: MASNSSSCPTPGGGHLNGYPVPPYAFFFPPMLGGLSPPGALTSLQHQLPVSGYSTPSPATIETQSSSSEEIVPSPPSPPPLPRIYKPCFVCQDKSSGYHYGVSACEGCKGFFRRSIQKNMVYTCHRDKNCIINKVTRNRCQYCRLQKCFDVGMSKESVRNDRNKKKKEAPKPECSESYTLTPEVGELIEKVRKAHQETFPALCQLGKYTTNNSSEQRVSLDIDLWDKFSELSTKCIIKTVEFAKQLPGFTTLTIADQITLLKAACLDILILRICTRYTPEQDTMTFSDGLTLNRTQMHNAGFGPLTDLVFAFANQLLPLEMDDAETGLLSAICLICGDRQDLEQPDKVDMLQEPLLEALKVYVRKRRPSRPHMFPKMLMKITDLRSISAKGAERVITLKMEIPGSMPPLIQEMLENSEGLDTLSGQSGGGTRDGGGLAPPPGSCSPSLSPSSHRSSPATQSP
T1 sequence 2: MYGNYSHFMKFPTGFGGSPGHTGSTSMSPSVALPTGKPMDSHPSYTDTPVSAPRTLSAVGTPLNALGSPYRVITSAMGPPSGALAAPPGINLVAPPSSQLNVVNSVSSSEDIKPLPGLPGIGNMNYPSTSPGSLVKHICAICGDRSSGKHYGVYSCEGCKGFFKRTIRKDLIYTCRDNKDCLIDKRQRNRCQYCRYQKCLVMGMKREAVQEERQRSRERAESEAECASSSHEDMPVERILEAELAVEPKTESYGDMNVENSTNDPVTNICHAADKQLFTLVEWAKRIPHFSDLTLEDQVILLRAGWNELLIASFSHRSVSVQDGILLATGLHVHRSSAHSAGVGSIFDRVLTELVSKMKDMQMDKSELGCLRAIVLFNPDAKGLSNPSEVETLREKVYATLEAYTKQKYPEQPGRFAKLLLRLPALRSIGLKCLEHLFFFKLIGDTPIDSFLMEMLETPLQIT
Method: Bars represent the mean of several independent experiments and standard deviations are indicated.
Several hours before transfection, the medium was replaced with fresh medium containing 5% charcoal-treated FCS. Cells (10^6 per 10 cm plate) were transfected by the calcium phosphate method using 2 μg of the reporter plasmid, 0.1 μg of retinoid acid receptor expression vectors and 0.5 μg of pCH110. In all transfection assays, the Bluescript (SK^-) plasmid was used as a carrier to reach 20 μg of total transfected DNA per plate.

Molecule: CC1=C(/C=C/C(C)=C\C=C\C(C)=C\C(=O)O)C(C)(C)CCC1 [9-cis-RA, 9-cis RA]
- changes in CAT activity [1]: no significant changes

Molecule: CC1(C)CCC(C)(C)c2cc([C@@H](O)C(=O)Nc3ccc(C(=O)O)cc3F)ccc21 [RARγ agonist]
- number of cells in percent relative to cells grown in 0.1% ethanol ([2]; 10 nM): 100%
- number of cells in percent relative to cells grown in 0.1% ethanol ([2]; 100 nM): 100%
- number of cells in percent relative to cells grown in 0.1% ethanol ([3]; 10 nM): 100%
- number of cells in percent relative to cells grown in 0.1% ethanol ([3]; 100 nM): 30%
- number of cells in percent relative to cells grown in 0.1% ethanol ([4]; 10 nM): 100%
- number of cells in percent relative to cells grown in 0.1% ethanol ([4]; 100 nM): 37%
- proportion of apoptotic nuclei and subcellular fragments (Hoechst 33258) [5]: ±* (asterisks less than that in combination with 1 μM panRXR agonist)
- proportion of apoptotic nuclei and subcellular fragments (Hoechst 33258) [6]: ±* (asterisks less than that in combination with 1 μM panRXR agonist)
- proportion of outer layer of cells displaying VE morphology ([7]; 1 nM): (−)
- proportion of outer layer of cells displaying VE morphology ([7]; 10 nM): +++ (more than 80%)
- proportion of outer layer of cells displaying VE morphology ([7]; 100 nM): +++ (more than 80%)
- proportion of outer layer of cells displaying VE morphology ([8]; 1 nM): (−)
- proportion of outer layer of cells displaying VE morphology ([8]; 10 nM): ± (not more than 10%)
- proportion of outer layer of cells displaying VE morphology ([8]; 100 nM): +++ (more than 80%)
- number of cells in percent relative to cells grown in 0.1% ethanol ([9]; 10 nM): 100%
- number of cells in percent relative to cells grown in 0.1% ethanol ([9]; 100 nM): 100%
- proportion of apoptotic nuclei and subcellular fragments (Hoechst 33258) [10]: (−)
- proportion of apoptotic nuclei and subcellular fragments (Hoechst 33258) ([11]; 10 nM): (−)
- proportion of apoptotic nuclei and subcellular fragments (Hoechst 33258) ([11]; 100 nM): + (>1-10%)
- number of cells in percent relative to cells grown in 0.1% ethanol ([12]; 10 nM): 100%
- number of cells in percent relative to cells grown in 0.1% ethanol ([12]; 100 nM): 49%
- proportion of outer layer of cells displaying VE morphology ([13]; 1 nM): (−)
- proportion of outer layer of cells displaying VE morphology ([13]; 10 nM): (−)
- proportion of outer layer of cells displaying VE morphology ([13]; 100 nM): (−)
- number of cells in percent relative to cells grown in 0.1% ethanol ([14]; 10 nM): 100%
- number of cells in percent relative to cells grown in 0.1% ethanol ([14]; 100 nM): 51%
- proportion of apoptotic nuclei and subcellular fragments (Hoechst 33258) ([15]; 10 nM): (−)
- proportion of apoptotic nuclei and subcellular fragments (Hoechst 33258) ([15]; 100 nM): + (>1-10%)
- proportion of outer layer of cells displaying VE morphology ([16]; 10 nM): + (10-50%)
- proportion of outer layer of cells displaying VE morphology ([16]; 100 nM): +++ (more than 80%)
- proportion of outer layer of cells displaying VE morphology ([17]; 10 nM): + (10-50%)
- proportion of outer layer of cells displaying VE morphology ([17]; 100 nM): +++ (more than 80%)

B1: RARE D2 (dsDNA)
DNA 1: AGCTTCCTCGTGGCCAGGGTGACCCCGCG
DNA 2: CGCGGGGTCACCCTGGCCACGAGGAAGCT
- activity [18]: 11 fold
